Data: patent publication US20090099204A1, “Amide derivative, insecticide containing the same and method for application thereof as insecticide” (Mitsui Chemicals, Inc., priority 2005, published 2009)

Columns and labels:
Format in all cases: in vivo
[1] = system: Common Cutworm (Spodoptera litura); test: Insecticidal Test on Common Cutworm (Spodoptera litura); details: Comparative Example 1; same conditions as Test Example 1
Protocol: Insecticidal Test on Common Cutworm (Spodoptera litura)
(§1) A piece of cabbage leaf was immersed for 30 seconds in a liquid chemical prepared by diluting a test compound to a prescribed concentration. After air-drying, the piece was put into a 7-cm polyethylene cup and second-instar larvae of common cutworms were released thereinto. The polyethylene cups were set in an isothermal chamber thermostated at 25° C. From the release 6 days later, the dead and alive were counted. The test was carried out with two replications of 5 insects per a plot.

[2] = system: Diamondback Moth (Plutella xylostella); test: Insecticidal Test on Diamondback Moth (Plutella xylostella); details: Comparative Example 1; same conditions as Test Example 2
Protocol: Insecticidal Test on Diamondback Moth (Plutella xylostella)
as §1, with “of diamondback moths” for “of common cutworms”, “the release,” for “the release”

[3] = system: Western Flower Thrip (Franklinella occidentalis); test: Insecticidal Test on Western Flower Thrip (Franklinella occidentalis); details: Comparative Example 1; same conditions as Test Example 3
[4] = system: Melon Thrip (Thrips palmi); test: Insecticidal Test on Melon Thrip (Thrips palmi); details: Comparative Example 1; same conditions as Test Example 4
Text: Insecticidal Test on Melon Thrip (Thrips palmi)
Into a plastic cup (diameter: 5 cm, height: 5 cm) was poured 1% agar gel, and the reverse side of a cucumber leaf cut with a diameter of 4.5 cm was placed upward to prepare leaf disc. A chemical to the prescribed concentration was dispersed thereon using a vertical sprayer. After air-drying, 5 adult melon thrips were released thereinto and the resulting material was lidded. 3 days thereafter, the number of surviving insects was counted and the mortality was calculated.

[5] = system: Onion Thrip (Thrips tabaci); details: Comparative Example 1; same conditions as Test Example 5
Protocol: Insecticidal Test on Onion Thrip (Thrips tabaci)
A chemical to the prescribed concentration was dispersed on onion seedlings, air-dried, and then both the seedlings and 5 adult insects of onion thrips were put into a glass test tube (diameter; 3 cm, height: 10 cm). The resulting material was lidded. 3 days thereafter, the number of surviving insects was counted and the mortality was calculated.

Measured: insecticidal activity

Cc1cc(C(F)(C(F)(F)F)C(F)(F)F)ccc1NC(=O)c1cccc(NC(=O)c2ccccc2I)c1 [Compound A, N-(4-heptafluoroisopropyl-2-methyl)phenyl 3-(2-iodobenzoylamino)benzamide]
could not be confirmed: all assays above

Cc1cc(C(F)(F)F)cc(C)c1NC(=O)c1cccc(NC(=O)c2ccccc2)c1 [Compound B, N-(2,6-dimethyl-4-trifluoromethyl)phenyl 3-(benzoylamino)benzamide]
could not be confirmed: all assays above
